Assay results reported in patent publication US12134620B2 (ARAXES PHARMA LLC, priority 2018, dated 2024).

target: T1, KRAS G12C 1-169, his-tagged protein, GDP-loaded (Homo sapiens, UniProt P01116, G12C); test: Biochemical assay: covalent modification of KRAS G12C, analysed by mass spectrometry (RapidFire/TOF or Q-Exactive); type: binding; conditions: Modification activity, modification percentage from MS peak intensities; note: time not given here
T1 construct: KRAS G12C 1-169, his-tagged protein, GDP-loaded; His tag
Summary of the method: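 Covalent adduct formation was quantified by intact-protein mass spectrometry, either TOF or C4 LC-Q Exactive Plus, as percent modified versus unmodified protein after deconvolution. Compounds at 8 or 32 μM final were incubated with 0.5 or 2 μM GDP-bound KRAS G12C(1-169)-His in Hepes/NaCl/MgCl2 buffer before acid quench.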

Row | SMILES | Binding %
1 | C=CC(=O)N1CC2(CCN(c3ncnc(-c4c(C)ccc5[nH]ncc45)c3CC)C2)C1 [Compound I-262, 1-(6-(5-ethyl-6-(5-methyl-1H-indazol-4-yl)pyrimidin-4-yl)-2,6-diazaspiro[3.4]octan-2-yl)prop-2-en-1-one] | + (+ indicates binding activity greater than 0% and up to 50%)
2 | C=CC(=O)N1CC2(CCN(c3cncc(-c4c(C)ccc5[nH]ncc45)c3C#N)CC2)C1 [Compound I-263, 3-(2-acryloyl-2,7-diazaspiro[3.5]nonan-7-yl)-5-(5-methyl-1H-indazol-4-yl)isonicotinonitrile] | + (+ indicates binding activity greater than 0% and up to 50%)
3 | C=CC(=O)N1CC2(CCN(c3cncc(-c4c(C)ccc5cnn(C)c45)c3C#N)C2)C1 [Compound I-264, 3-(2-acryloyl-2,6-diazaspiro[3.4]octan-6-yl)-5-(1,6-dimethyl-1H-indazol-7-yl)isonicotinonitrile] | ++ (++ indicates binding activity from 50 to 85%)
4 | C=CC(=O)N1CC2(CCN(c3cncc(-c4c(C)ccc5cnn(C)c45)c3C#N)CC2)C1 [Compound I-265, 3-(2-acryloyl-2,7-diazaspiro[3.5]nonan-7-yl)-5-(1,6-dimethyl-1H-indazol-7-yl)isonicotinonitrile] | + (+ indicates binding activity greater than 0% and up to 50%)
5 | C/C=C/C(=O)N1CC2(CCN(c3ncnc(-c4c(C)ccc5[nH]ncc45)c3C#N)C2)C1 [Compound I-266, (E)-4-(2-(but-2-enoyl)-2,6-diazaspiro[3.4]octan-6-yl)-6-(5-methyl-1 1H-indazol-4-yl)pyrimidine-5-carbonitrile] | + (+ indicates binding activity greater than 0% and up to 50%)
6 | C=CC(=O)N1CC2(CCN(c3nccc(-c4c(C)ccc5[nH]ncc45)c3C#N)C2)C1 [Compound I-267, 2-(2-acryloyl-2,6-diazaspiro[3.4]octan-6-yl)-4-(5-methyl-1H-indazol-4-yl)nicotinonitrile] | + (+ indicates binding activity greater than 0% and up to 50%)
7 | C#Cc1c(-c2c(C)ccc3[nH]ncc23)ncnc1N1CCC2(CN(C(=O)C=C)C2)C1 [Compound I-268, 1-(6-(5-ethynyl-6-(5-methyl-1H-indazol-4-yl)pyrimidin-4-yl)-2,6-diazaspiro[3.4]octan-2-yl)prop-2-en-1-one] | + (+ indicates binding activity greater than 0% and up to 50%)
8 | C=CC(=O)N1CC2(CCN(c3cncc(-c4c(O)cccc4F)c3C#N)C2)C1 [Compound I-269, 3-(2-acryloyl-2,6-diazaspiro[3.4]octan-6-yl)-5-(2-fluoro-6-hydroxyphenyl)isoni-cotinonitrile] | + (+ indicates binding activity greater than 0% and up to 50%)
9 | CC#CC(=O)N1CC2(CCN(c3cncc(-c4c(O)cccc4F)c3C#N)C2)C1 [Compound I-270, 3-(2-(but-2-ynoyl)-2,6-diazaspiro[3.4]octan-6-yl)-5-(2-fluoro-6-hydroxyphenyl)isoni-cotinonitrile] | + (+ indicates binding activity greater than 0% and up to 50%)
10 | CC#CC(=O)N1CC2(CCN(c3cncc(-c4c(C)ccc5cnn(C)c45)c3C#N)C2)C1 [Compound I-271, 3-(2-(but-2-ynoyl)-2,6-diazaspiro[3.4]octan-6-yl)-5-(1,6-dimethyl-1H-indazol-7-yl)isonicotinonitrile] | + (+ indicates binding activity greater than 0% and up to 50%)
11 | CC#CC(=O)N1CC2(CCN(c3cncc(-c4c(C)ccc5[nH]ncc45)c3C#N)C2)C1 [Compound I-272, 3-(2-(but-2-ynoyl)-2,6-diazaspiro[3.4]octan-6-yl)-5-(5-methyl-1H-indazol-4-yl)isonicotinonitrile] | + (+ indicates binding activity greater than 0% and up to 50%)
12 | C=CC(=O)N1CC2(CC(=O)N(c3ncnc(-c4c(C)ccc5[nH]ncc45)c3C#N)C2)C1 [Compound I-273, 4-(2-acryloyl-7-oxo-2,6-diazaspiro[3.4]octan-6-yl)-6-(5-methyl-1H-indazol-4-yl)pyrimidine-5-carbonitrile] | + (+ indicates binding activity greater than 0% and up to 50%)
13 | C=CC(=O)N1CC2(CCN(c3ccnc(-c4c(C)ccc5[nH]ncc45)n3)C2)C1 [Compound I-274, 1-(6-(2-(5-methyl-1H-indazol-4-yl)pyrimidin-4-yl)-2,6-diazaspiro[3.4]octan-2-yl)prop-2-en-1-one] | + (+ indicates binding activity greater than 0% and up to 50%)
14 | C=CC(=O)N1CC2(CCN(c3nccc(-c4c(C)ccc5[nH]ncc45)n3)C2)C1 [Compound I-275, 1-(6-(4-(5-methyl-1H-indazol-4-yl)pyrimidin-2-yl)-2,6-diazaspiro[3.4]octan-2-yl)prop-2-en-1-one] | + (+ indicates binding activity greater than 0% and up to 50%)
15 | C=CC(=O)N1CC2(CCN(c3cncc(-c4c(C)ccc5[nH]nc(N)c45)c3C#N)C2)C1 [Compound I-277, 3-(2-acryloyl-2,6-diazaspiro[3.4]octan-6-yl)-5-(3-amino-5-methyl-1H-indazol-4-yl)isonicotinonitrile] | ++ (++ indicates binding activity from 50 to 85%)
16 | CC#CC(=O)N1CC2(CCN(c3cncc(-c4c(C)ccc5[nH]nc(N)c45)c3C#N)C2)C1 [Compound I-278, 3-(3-amino-5-methyl-1H-indazol-4-yl)-5-(2-(but-2-ynoyl)-2,6-diazaspiro[3.4]octan-6-yl)isonicotinonitrile] | + (+ indicates binding activity greater than 0% and up to 50%)
17 | Cc1ccc2[nH]ncc2c1-c1cncc(N2CCC3(CN(C(=O)/C=C/CN(C)C)C3)C2)c1C#N [Compound I-279, (E)-3-(2-(4-(dimethylamino)but-2-enoyl)-2,6-diazaspiro[3.4]octan-6-yl)-5-(5-methyl-1H-indazol-4-yl)isonicotinonitrile] | + (+ indicates binding activity greater than 0% and up to 50%)
18 | C=CC(=O)N1CC2(CCN(c3ncnc(-c4c(C)ccc5[nH]ncc45)n3)C2)C1 [Compound I-280, 1-(6-(4-(5-methyl-1H-indazol-4-yl)-1,3,5-triazin-2-yl)-2,6-diazaspiro[3.4]octan-2-yl)prop-2-en-1-one] | + (+ indicates binding activity greater than 0% and up to 50%)
19 | C=CC(=O)N1CC2(CCN(c3ncnc(-c4c(C)ccc5[nH]ncc45)c3C#N)CC2)C1C(C)C (stereo not shown) [Compound I-281, 4-(2-acryloyl-1-isopropyl-2,7-diazaspiro[3.5]nonan-7-yl)-6-(5-methyl-1H-indazol-4-yl)pyrimidine-5-carbonitrile] | + (+ indicates binding activity greater than 0% and up to 50%)
